The source of these data is patent US5605921A, “Triazole derivatives and salts thereof, and antifungal agent containing the same” (Toyama Chemical Co., Ltd., priority 1991, dated 1997).

The term MIC denotes the lowest concentration that inhibits growth of the organism. Lower therefore signals a more susceptible organism.

Data set [1] relates to Candida albicans ON28. As to the kind of experiment: Minimum inhibitory concentration (MIC) against Candida albicans ON28. The data set is classed as cell-based. The conditions noted are these: ON28, 72 h, TC broth medium, 10^4 spores/ml, 37° C., 3 days. The protocol:
(§1) MIC was determined in accordance with the method of M. S. Marriott [25th Interscience Conference on Antimicrobial Agents and Chemotherapy, p. 243 (1985)].
(§2) Candida albicans ON28 was cultured in a sabouraud dextrose agar medium containing 10 g of neopeptone, 20 g of glucose and 15 g of agar per liter, at 30° C. for 1-2 days. The yeast cells were suspended in sterile distilled water. Separately, Aspergillus fumigatus IFO8868 was cultured in a potato dextrose agar medium (manufactured by Nissui Pharmaceutical Co., Ltd.) at 30° C. until the conidia were formed abundantly. The formed conidia were suspended in a sterile physiological saline containing 0.1% of Tween 80. Each of the Candida albicans suspension and the Aspergillus fumigatus suspension was inoculated into a TC broth medium (containing 1.17 g of an yeast carbon base, 0.25 g of ammonium sulfate, 2.0 ml of a 50-fold concentrate of L-glutamic acid-containing MEM amino acid, 20 ml of a 0.5M phosphate buffer of pH 7.5 and 1.33 ml of 7.5% sodium hydrogencarbonate per 100 ml) containing a test compound, so that the final fungal amount became 10^4 spores/ml. Then, culture was conducted at 37° C. for 3 days. Thereafter, the growth of fungi was examined. The minimum concentration of test compound at which the growth of fungi had been inhibited, was taken as MIC (μg/ml).

For data set [2], the system named is Aspergillus fumigatus IFO8868. The data set can be described thus: Minimum inhibitory concentration (MIC) against Aspergillus fumigatus IFO8868. The data set is classed as cell-based. The conditions noted are these: IFO8868, 72 h, TC broth medium, 10^4 spores/ml, 37° C., 3 days. The method, then:
as §1, §2

Data set [3] relates to Candida albicans ON28. The data set can be described thus: Therapeutic effect, oral, mice infected with Candida albicans ON28 (3), Table 2c. The data set is classed as in vivo, ICR strain male mice infected with Candida albicans ON28. The conditions noted are these: average survival days of Ketoconazole taken as 100; Candida albicans 5.7×10^6 cells/mouse i.v.; 0.1 mg/mouse oral, 2 hours after infection; 10 days observation; 10 mice. The method, then: (3) The therapeutic effects of the present compounds, when they were administered orally, were examined using mice infected with Candida albicans ON28.
Candida albicans ON28 was injected in a proportion of 5.7×10^6 cells/mouse to a group of 10 ICR strain male mice (weight: 19-21 g) intravenously at the tails, whereby the mice were infected with the fungi. […] The relative therapeutic index of the test compound was determined from the average survival days.
The results are shown in Table 2c, in which the relative therapeutic index of each test compound is a value calculated by taking the average survival days Ketoconazole as 100.

The subject of data set [4] is Aspergillus fumigatus IFO8868. The data set can be described thus: Therapeutic effect, oral, mice infected with Aspergillus fumigatus IFO8868 (4), Table 2d. The data set is classed as in vivo. The conditions noted are these: average survival days of Ketoconazole taken as 100; Aspergillus fumigatus 5.8×10^6 cells/mouse i.v.; 0.8 mg/mouse oral, 2 hours after infection and once daily for six consecutive days; 10 days observation; 10 mice. The protocol:
(4) The therapeutic effects of the present compounds, when they were administered orally, were examined using mice infected with Aspergillus fumigatus IFO8868.
Aspergillus fumigatus IFO8868 was injected in a proportion of 5.8×10^6 cells/mouse to a group of 10 ICR strain male mice (weight: 19-21 g) intravenously at the tails, whereby the mice were infected with the fungi. […] The relative therapeutic index of the test compound was determined from the average survival days.
The results are shown in Table 2d, in which the relative therapeutic index of each test compound is a value calculated by taking the average survival days of Ketoconazole as 100.

Data set [5] can be described thus: Acute toxicity in mice, intravenous. The data set is classed as in vivo. The conditions noted are these: intravenous at the tail, ICR strain male mice, group of 5; 50% solution in polyethylene glycol 300. The protocol:
Each of the compounds of Examples 10, 12, 19, 79, 142 and 146 was administered to a group of 5 ICR strain male mice (weight: 29-31 g) intravenously at the tails, and the acute toxicity of each compound was examined.
Each compound was administered in the form of a 50% solution in polyethylene glycol 300.

The test system of data set [6] is Candida albicans ON28. The data set can be described thus: Therapeutic effect, oral, mice infected with Candida albicans ON28 (1), Table 2a. The data set is classed as in vivo, ICR strain male mice infected with Candida albicans ON28. The following applies: average survival days of Ketoconazole taken as 100; Candida albicans 3.5×10^6 cells/mouse i.v.; 0.1 mg/mouse oral, 2 hours after infection; 10 days observation; 5 mice. The protocol: (1) The therapeutic effects of the present compounds, when they were administered orally, were examined using mice infected with Candida albicans ON28.
Candida albicans ON28 was injected in a proportion of 3.5×10^6 cells/mouse to a group of 5 ICR strain male mice (weight: 19-21 g) intravenously at the tails, whereby the mice were infected with the fungi. […] The relative therapeutic index of the test compound was determined from the average survival days.
The results are shown in Table 2a, in which the relative therapeutic index of each test compound is a value calculated by taking the average survival days Ketoconazole as 100.

Data set [7] has as its system Aspergillus fumigatus IFO8868. The data set can be described thus: Therapeutic effect, oral, mice infected with Aspergillus fumigatus IFO8868 (2), Table 2b. The conditions noted are these: average survival days of Ketoconazole taken as 100; Aspergillus fumigatus 3.6×10^6 cells/mouse i.v.; 0.8 mg/mouse oral, 2 hours after infection; 10 days observation; 5 mice. The data set is classed as in vivo. The protocol:
(2) The therapeutic effects of the present compounds, when they were administered orally, were examined using mice infected with Aspergillus fumigatus IFO8868.
Aspergillus fumigatus IFO8868 was injected in a proportion of 3.6×10^6 cells/mouse to a group of 5 ICR strain male mice (weight: 19-21 g) intravenously at the tails, whereby the mice were infected with the fungi. […] The relative therapeutic index of the test compound was determined from the average survival days.
The results are shown in Table 2b, in which the relative therapeutic index of each test compound is a value calculated by taking the average survival days of Ketoconazole as 100.

Converted amounts (≈) assume the structure as drawn. Where only a bound is given, the exact number is not on record here.

In the case of `NC(=O)C(F)(F)C(O)(Cn1cncn1)c1ccc(F)cc1F` (single isomer, unassigned) [Example 142], the MIC in the data set on Candida albicans ON28 [1] was found to be 0.78 µg/mL (≈ 2.45 µM); in data set [2], 100 µg/mL (≈ 314 µM). For the same compound, the figures for the Relative therapeutic index (with Candida albicans ON28 [3]; in data set [4]) were 405 and 216, respectively. The “dose up to which no dead case occurred (acute toxicity)” value (“dose up to which no dead case occurred” below) in data set [5] is ≥ 200 mg/kg.

As for `NC(=O)C(F)(F)C(O)(Cn1cncn1)c1ccc(F)cc1Cl` (single isomer, unassigned) [Example 146], the results for the minimum inhibitory concentration (MIC) (with Candida albicans ON28 [1]; in data set [2]) were 0.39 µg/mL (≈ 1.17 µM) and 50 µg/mL (≈ 149 µM), respectively. Also, the Relative therapeutic index was 418 with Candida albicans ON28 [3] and 500 in data set [4]. Further, in data set [5], the “dose up to which no dead case occurred” value is ≥ 200 mg/kg.

For the compound `NC(=O)C(F)(F)C(O)(Cn1cncn1)c1ccc(F)cc1F` (centres unmarked) [Example 10, 3-(2,4-difluorophenyl)-2,2-difluoro-3-hydroxy-4-(1H-1,2,4-triazol-1-yl)butanamide], the Relative therapeutic index is given as 414 in the data set on Candida albicans ON28 [3] and 200 in data set [4]. Also, the “dose up to which no dead case occurred” value in data set [5] is on record as ≥ 200 mg/kg.

For `CCNC(=O)C(F)(F)C(O)(Cn1cncn1)c1ccc(F)cc1F` (centres unmarked) [Example 12], the MIC stood at 0.2 µg/mL (≈ 0.578 µM) against Candida albicans ON28 [1] and 25 µg/mL (≈ 72.2 µM) in data set [2]. For the same compound, the Relative therapeutic index in the data set with Candida albicans ON28 [6] amounted to 440; in data set [7] it was 150; in the data set with Candida albicans ON28 [3], 445; in data set [4], 237. The “dose up to which no dead case occurred” value in data set [5] is listed as ≥ 100 mg/kg.

For the compound `O=C(NC1CC1)C(F)(F)C(O)(Cn1cncn1)c1ccc(F)cc1F` (centres unmarked) [Example 19], the MIC was found to be 0.1 µg/mL (≈ 0.279 µM) with Candida albicans ON28 [1] and 50 µg/mL (≈ 140 µM) in data set [2]. In addition, the Relative therapeutic index in the data set with Candida albicans ON28 [6] is 625; in data set [7] it was 164; with Candida albicans ON28 [3], 405; in data set [4], 253. For the same compound, the “dose up to which no dead case occurred” value in data set [5] is given as ≥ 100 mg/kg.

`O=C(NC1CC1)C(F)(F)C(O)(Cn1cncn1)c1ccc(F)cc1Cl` (centres unmarked) [Example 30]: the MIC in the data set with Candida albicans ON28 [1] was 0.2 µg/mL (≈ 0.534 µM); in data set [2], 12.5 µg/mL (≈ 33.4 µM). Further, the Relative therapeutic index was found to be 355 with Candida albicans ON28 [6], 207 in data set [7], 414 in the data set with Candida albicans ON28 [3] and 358 in data set [4].

For `NC(=O)C(F)(F)C(O)(Cn1cncn1)c1ccc(F)cc1Cl` (centres unmarked) [Example 79], the MIC is 0.78 µg/mL (≈ 2.33 µM) in the data set on Candida albicans ON28 [1] and 50 µg/mL (≈ 149 µM) in data set [2]. In addition, the Relative therapeutic index with Candida albicans ON28 [3] turned out to be 405; in data set [4] it was 400. Also, in data set [5], the “dose up to which no dead case occurred” value is listed as ≥ 200 mg/kg.
